Data taken from patent US20230123334A1, “AMINO LIPID COMPOUND, PREPARATION METHOD THEREFOR, AND APPLICATION THEREOF” (SHENZHEN SHENXIN BIOTECHNOLOGY CO., LTD., priority 2020, published 2023).

Columns and labels:
HEK293 cells [1] = experiment: Preliminary screening as DNA vectors, GFP transfection of HEK293 cells; type: cell-based; settings: HEK293 cells; lipid/DOPE liposome with 75 ng plasmid DNA (psin-EGFP-IRES-Puro); number of cells expressing GFP divided by total number of nuclei (Hoechst)
Outline: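 HEK293 cells in DMEM/10% FBS transfected with 75 ng EGFP plasmid per well complexed with amino lipid/DOPE liposomes in pH 5.6 sodium acetate. Hoechst nuclear stain added 20-24 h post-transfection, then cells cultured another 20-24 h. Confocal imaging gives GFP-positive cells as % of total nuclei.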

HEK293 cells [2] = experiment: Preliminary screening as mRNA vectors, EGFP mRNA transfection of HEK293 cells; type: cell-based; settings: HEK293 cells, 96-well plates, EGFP mRNA 50 ng per well; percentage of GFP fluorescent cells relative to total number of cells (Hoechst)
Outline: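 HEK293 cells in DMEM plus 10% FBS transfected in 96-well format with 50 ng EGFP mRNA per well; Lipofectamine2000 served as positive control. Read-out is the percentage of GFP-fluorescent cells among total cells, counted by Hoechst nuclear stain.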

SMILES | Absolute DNA transfection efficiency in HEK293 cells (HEK293 cells [1]) [%] | Absolute mRNA transfection efficiency in HEK293 cells (HEK293 cells [2]) [%]
CCCCCCCCCCCCCCCCNc1nc(NCCCCCCCCC)nc(NCCN(CC)CC)n1 [Compound N9N16D7] | 0.0 | 1.1
CCCCCCCCCCCCCCCCNc1nc(NCCCCCCCCC)nc(NCCCN2CCOCC2)n1 [Compound N9N16D8] | 1.8 | 0.0
CCCCCCCCCCCCCCCCNc1nc(NCCCCCCCCC)nc(NCCCN2CCN(C)CC2)n1 [Compound N9N16D9] | 0.0 | 1.1
CCCCCCCCCCCCCCCCNc1nc(NCCCCCCCCC)nc(NCC2CCN(C)CC2)n1 [Compound N9N16D10] | 4.8 | 1.2
CCCCCCCCCCCCCCCCCCNc1nc(NCCCCCCCCC)nc(NCCN(C)C)n1 [Compound N9N18D1] | 4.0 | 5.1
CCCCCCCCCCCCCCCCCCNc1nc(NCCCCCCCCC)nc(NCCN2CCOCC2)n1 [Compound N9N18D2] | 3.6 | 25.3
CCCCCCCCCCCCCCCCCCNc1nc(NCCCCCCCCC)nc(NCCN2CCCC2)n1 [Compound N9N18D3] | 2.0 | 4.7
CCCCCCCCCCCCCCCCCCNc1nc(NCCCCCCCCC)nc(NCCN2CCCCC2)n1 [Compound N9N18D4] | 19.9 | 1.3
CCCCCCCCCCCCCCCCCCNc1nc(NCCCCCCCCC)nc(NCCN2CCN(C)CC2)n1 [Compound N9N18D5] | 0.0 | 0.9
CCCCCCCCCCCCCCCCCCNc1nc(NCCCCCCCCC)nc(NCCCN(C)C)n1 [Compound N9N18D6] | 2.2 | 2.5
CCCCCCCCCCCCCCCCCCNc1nc(NCCCCCCCCC)nc(NCCN(CC)CC)n1 [Compound N9N18D7] | 3.0 | 0.6
CCCCCCCCCCCCCCCCCCNc1nc(NCCCCCCCCC)nc(NCCCN2CCOCC2)n1 [Compound N9N18D8] | 1.4 | 0.3
CCCCCCCCCCCCCCCCCCNc1nc(NCCCCCCCCC)nc(NCCCN2CCN(C)CC2)n1 [Compound N9N18D9] | 0.3 | 3.1
CCCCCCCCCCCCCCCCCCNc1nc(NCCCCCCCCC)nc(NCC2CCN(C)CC2)n1 [Compound N9N18D10] | 2.6 | 1.9
CCCCCCCCCCCNc1nc(NCCCCCCCCCCC)nc(NCCN(C)C)n1 [Compound N11N11D1] | 0.9 | 4.3
CCCCCCCCCCCNc1nc(NCCCCCCCCCCC)nc(NCCN2CCOCC2)n1 [Compound N11N11D2] | 0.0 | 1.4
CCCCCCCCCCCNc1nc(NCCCCCCCCCCC)nc(NCCN2CCCC2)n1 [Compound N11N11D3] | 1.8 | 1.4
CCCCCCCCCCCNc1nc(NCCCCCCCCCCC)nc(NCCN2CCCCC2)n1 [Compound N11N11D4] | 0.0 | 4.1
CCCCCCCCCCCNc1nc(NCCCCCCCCCCC)nc(NCCN2CCN(C)CC2)n1 [Compound N11N11D5] | 0.9 | 0.4

SMILES | Absolute DNA transfection efficiency in HEK293 cells (HEK293 cells [1]) [%] | Absolute mRNA transfection efficiency in HEK293 cells (HEK293 cells [2]) [%]
CCCCCCCCCCCNc1nc(NCCCCCCCCCCC)nc(NCCCN(C)C)n1 [Compound N11N11D6] | 0.7 | 1.1
CCCCCCCCCCCNc1nc(NCCCCCCCCCCC)nc(NCCN(CC)CC)n1 [Compound N11N11D7] | 0.6 | 5.5
CCCCCCCCCCCNc1nc(NCCCCCCCCCCC)nc(NCCCN2CCOCC2)n1 [Compound N11N11D8] | 0.0 | 1.5
CCCCCCCCCCCNc1nc(NCCCCCCCCCCC)nc(NCCCN2CCN(C)CC2)n1 [Compound N11N11D9] | 0.0 | 0.3
CCCCCCCCCCCNc1nc(NCCCCCCCCCCC)nc(NCC2CCN(C)CC2)n1 [Compound N11N11D10] | 0.5 | 1.2
CCCCCCCCCCCCNc1nc(NCCCCCCCCCCC)nc(NCCN(C)C)n1 [Compound N11N12D1] | 0.0 | 0.3
CCCCCCCCCCCCNc1nc(NCCCCCCCCCCC)nc(NCCN2CCOCC2)n1 [Compound N11N12D2] | 0.5 | 0.5
CCCCCCCCCCCCNc1nc(NCCCCCCCCCCC)nc(NCCN2CCCC2)n1 [Compound N11N12D3] | 1.9 | 2.7
CCCCCCCCCCCCNc1nc(NCCCCCCCCCCC)nc(NCCN2CCCCC2)n1 [Compound N11N12D4] | 0.0 | 1.2
CCCCCCCCCCCCNc1nc(NCCCCCCCCCCC)nc(NCCN2CCN(C)CC2)n1 [Compound N11N12D5] | 0.0 | 8.0
CCCCCCCCCCCCNc1nc(NCCCCCCCCCCC)nc(NCCCN(C)C)n1 [Compound N11N12D6] | 0.5 | 8.1
CCCCCCCCCCCCNc1nc(NCCCCCCCCCCC)nc(NCCN(CC)CC)n1 [Compound N11N12D7] | 0.0 | 2.4
CCCCCCCCCCCCNc1nc(NCCCCCCCCCCC)nc(NCCCN2CCOCC2)n1 [Compound N11N12D8] | 0.0 | 2.8
CCCCCCCCCCCCNc1nc(NCCCCCCCCCCC)nc(NCCCN2CCN(C)CC2)n1 [Compound N11N12D9] | 0.0 | 0.3
CCCCCCCCCCCCNc1nc(NCCCCCCCCCCC)nc(NCC2CCN(C)CC2)n1 [Compound N11N12D10] | 1.8 | 0.4
CCCCCCCCCCCCCNc1nc(NCCCCCCCCCCC)nc(NCCN(C)C)n1 [Compound N11N13D1] | 1.4 | 5.9
CCCCCCCCCCCCCNc1nc(NCCCCCCCCCCC)nc(NCCN2CCOCC2)n1 [Compound N11N13D2] | 0.0 | 0.1
CCCCCCCCCCCCCNc1nc(NCCCCCCCCCCC)nc(NCCN2CCCC2)n1 [Compound N11N13D3] | 0.0 | 3.6
